This is an account of results in publication PMC10302582, “Unveiling the Potential of BenzylethyleneAryl–Urea Scaffolds for the Design of New Onco Immunomodulating Agents” (Pharmaceuticals, 2023).

One data set addresses T1, VEGFR-2 (Homo sapiens, UniProt P35968).
T1 construct: assess the effect of our new ureas on these two proteins only on the HT-29 cancer cell line through the use of flow cytometry; endogenous in cells; host or cells: HT-29
The experiment in a line: VEGFR-2 relative quantification by flow cytometry in HT-29 cells. Particulars: for total VEGFR-2 (%) expression: HT-29 cells, 24 h, relative to DMSO control = 100. In kind it is cell-based. How it is done: The cells were incubated for a period of time of one day with doses of each of the selected compounds at two different doses: 20 and 100 µM concentrations.
The effects of the compounds on the target in the cancer cell lines compounds were tested using 20 and 100 µM doses. For that, 10^5 cells per well were seeded on a 12-well plate for 24 h with the corresponding dose of the tested compound in a total volume of 500 μL of cell media. To determine the total PD-L1 and VEGFR-2, the cells were collected and fixed with 4% in a PBS of formaldehyde. After this, a treatment with 0.5% in PBS Triton^TM X-100 permeabilized the membranes.
To determine surface PD-L1 and VEGFR-2, the assay used was similar to the above but avoided the permeabilization step (Triton^TM X-100).
(In general: A flow cytometer gives signals particle by particle.)

In data set [1] the test system is HEK-293 (human embryonic kidney cells). The experiment in a line: MTT cell proliferation assay, HEK-293. Format: cell-based. Particulars: HEK293, 48 h treatment. How it is done: The action on cell proliferation caused by our developed compounds was studied using an MTT assay using the human tumor cell lines of HT-29 (colon adenocarcinoma) and A-549 (pulmonary adenocarcinoma), as well as toward the non-tumor cell line HEK-293 (human embryonic kidney cells), Jurkat T-cells and human microvessel endothelial cells (HMEC-1).
In general, 5 × 10^3 (HT-29, A549, HMEC-1, Jurkat and HEK-293) cells per well were seeded in 96-well plates with 1:1 dilutions of the compounds in a volume of 100 μL of the cell media. The 3-(4,5-dimethylthiazol-2-yl)-2,5-diphenyltetrazolium bromide (MTT; Sigma Chemical Co.) dye exclusion assay was performed, and after 48 h (37 °C, 5% CO2 in a humid atmosphere), 10 μL of MTT (5 mg/mL in phosphate-buffered saline, PBS) was added to each well and incubated for 3 h at 37 °C. After the supernatant was discarded, we solved the formazan crystal in 100 µL of DMSO. The absorbance was then registered at 550 nm using a plate lector. For all concentrations of any compound, cell viability was expressed as the percentage of the ratio between the mean absorbance of the treated cells and the mean absorbance of the untreated cells. Three to five experiments were performed to establish the IC50 values (i.e., concentration half inhibiting cell proliferation, we used GraphPad Prism 7 software).
A general note: Tetrazolium dyes change colour on reduction, which living cells bring about.

The subject of a further data set is HMEC-1 endothelial cells. The experiment in a line: Microvessel formation inhibition assay on Matrigel. Particulars: HMEC-1 on Matrigel. Format: cell-based, human. How it is done:
The antiangiogenic action of the selected compounds, as well as the reference compounds, was evaluated by determining the effect on the formation of new microvessels formed by HMEC-1 endothelial cells on a Matrigel matrix.
We used IBIDI μ-slide angiogenesis plates (IBIDI, Martins ried, Germany). The wells were coated with 15 μL of Matrigel® (10 mg/mL, BD Biosciences, San Jose, CA, USA) at 4 °C and incubated at 37 °C for at least 30 min. Afterward, the HMEC-1 cells were seeded at 2 × 10^4 cells/well in 25 μL of medium and were left for 30 min at 37 °C while they attached. Then, the compounds were added in serial doses in 25 μL of the medium, and after several hours (maximum 24 h) of incubation at 37 °C, pictures for the wells were taken to evaluate the formation of microvessels.

The next data set relates to CD80. The experiment in a line: CD80 detection on membrane of co-cultured THP-1. In kind it is cell-based, human. The settings on record: 1:5 HT-29/THP-1; 24 h; relative to non-treated co-cultured THP-1. From the text:
Reducing the expression of CD11b has become a promising target for immune modulation in anticancer therapies. For that reason, we decided to study the effect of our compounds on CD11b in THP-1 cells co-cultured with HT-29. We also determined the relative amount of CD80, a common surface marker for monocytes.
The results are related to non-treated THP-1 cells when they were co-cultured with HT-29.
The action of the compounds on CDs in co-cultured THP-1 immune cells with cancer cell line HT-29 was tested by treating them with the compounds for 24 h/48 h (see Section 4.2.5). Surface CD11b and CD80 was determined by collecting THP-1 with trypsin, fixing with formaldehyde and staining with FITC Mouse monoclonal Anti-Human CD80 (Sigma-Aldrich SAB4700142) and Alexa Fluor® 647 Rabbit monoclonal Anti-CD11b (Merck #MABF366, Rahway, NJ, USA).

pIC50: −log10 of the molar value.

T1 sequence (P35968 20-1356): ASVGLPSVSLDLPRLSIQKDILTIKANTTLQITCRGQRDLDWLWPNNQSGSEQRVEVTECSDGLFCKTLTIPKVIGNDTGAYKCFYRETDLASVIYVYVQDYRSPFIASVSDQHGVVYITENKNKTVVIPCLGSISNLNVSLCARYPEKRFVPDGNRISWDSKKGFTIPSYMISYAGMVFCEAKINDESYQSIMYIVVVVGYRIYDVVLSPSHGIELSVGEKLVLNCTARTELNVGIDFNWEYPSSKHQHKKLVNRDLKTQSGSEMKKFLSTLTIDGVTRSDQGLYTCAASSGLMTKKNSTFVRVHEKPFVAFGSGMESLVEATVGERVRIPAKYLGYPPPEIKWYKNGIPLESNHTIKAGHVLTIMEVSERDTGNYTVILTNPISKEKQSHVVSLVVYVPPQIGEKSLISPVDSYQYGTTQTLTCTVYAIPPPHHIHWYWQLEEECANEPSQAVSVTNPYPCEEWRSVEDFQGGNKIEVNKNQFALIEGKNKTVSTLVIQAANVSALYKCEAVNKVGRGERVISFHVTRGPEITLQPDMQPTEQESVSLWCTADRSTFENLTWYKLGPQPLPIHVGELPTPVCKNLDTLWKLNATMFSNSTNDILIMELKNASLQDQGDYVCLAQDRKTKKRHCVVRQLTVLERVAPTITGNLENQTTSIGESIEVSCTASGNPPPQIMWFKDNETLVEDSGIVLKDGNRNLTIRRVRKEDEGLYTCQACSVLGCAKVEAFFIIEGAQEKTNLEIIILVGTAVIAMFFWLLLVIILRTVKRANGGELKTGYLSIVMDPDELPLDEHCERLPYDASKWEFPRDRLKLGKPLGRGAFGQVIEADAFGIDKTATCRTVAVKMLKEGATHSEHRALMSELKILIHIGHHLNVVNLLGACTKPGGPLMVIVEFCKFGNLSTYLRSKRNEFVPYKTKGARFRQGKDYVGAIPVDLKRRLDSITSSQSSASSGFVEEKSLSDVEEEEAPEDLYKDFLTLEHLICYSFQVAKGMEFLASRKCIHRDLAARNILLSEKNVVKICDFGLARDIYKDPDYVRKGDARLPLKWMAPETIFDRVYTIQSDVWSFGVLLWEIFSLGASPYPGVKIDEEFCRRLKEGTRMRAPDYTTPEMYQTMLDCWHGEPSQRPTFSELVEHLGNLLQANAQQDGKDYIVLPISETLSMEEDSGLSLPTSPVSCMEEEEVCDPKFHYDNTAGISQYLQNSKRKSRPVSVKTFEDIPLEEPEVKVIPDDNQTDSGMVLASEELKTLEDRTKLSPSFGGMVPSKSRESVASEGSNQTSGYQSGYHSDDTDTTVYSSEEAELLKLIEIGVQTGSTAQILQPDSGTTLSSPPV

In the case of `COc1ccc(CCCc2cccc(NC(=O)Oc3ccccc3)c2)cc1` [C.1], the melting point (in general, the temperature of the solid-liquid transition) lay within 89 to 91 °C. Further, the “total VEGFR-2 (%) expression” value at VEGFR-2 (20 μM) came to 51 ± 10%. For the same compound, the “total VEGFR-2 (%) expression” value at VEGFR-2 (100 μM) is listed as 191 ± 87%. For the same compound, the pIC50 (as a rule, −log10 of the IC50, conventionally taken in molar units) in data set [1] was less than 4.00. Besides, the “Minimum Active Conc. inhibiting microtube formation” value with HMEC-1 endothelial cells was determined as 5 µM. In addition, the “% CD80 expression in membrane of THP-1” value in the data set with CD80 is 96 ± 1%.
`COc1ccc(CCCc2cccc(NC(=O)Nc3ccccc3OC)c2)cc1` [C.14]: the melting point lay in the range of 82 to 85 °C. At VEGFR-2 (20 μM), the “total VEGFR-2 (%) expression” value was 228 ± 66%. The “total VEGFR-2 (%) expression” value on VEGFR-2 (100 μM) is recorded as 32 ± 9%. In data set [1], this compound had a pIC50 of less than 4.00. For the same compound, in the data set on HMEC-1 endothelial cells, the “Minimum Active Conc. inhibiting microtube formation” value is greater than 100 µM. Further, in the data set on CD80, the “% CD80 expression in membrane of THP-1” value is 92 ± 1%.
In turn, `COc1ccc(CCCc2cccc(NC(=O)Nc3ccc(OC)cc3)c2)cc1` [C.12] returned a melting point of 181 to 183 °C. Further, the “inhibition rate of VEGFR-2” value against VEGFR-2 (HT-29, total VEGFR-2, dose not stated) is listed as “around 75%”. At VEGFR-2 (20 μM), the “total VEGFR-2 (%) expression” value came to 30 ± 10%. The “total VEGFR-2 (%) expression” value on VEGFR-2 (100 μM) is 65 ± 45%. Further, the pIC50 in data set [1] is less than 4.00. In addition, in the data set on HMEC-1 endothelial cells, the “Minimum Active Conc. inhibiting microtube formation” value came out at 20 µM. The “% CD80 expression in membrane of THP-1” value in the data set on CD80 stood at 89 ± 2%.
`COc1ccc(CCCc2cccc(NC(=O)Nc3ccc(F)cc3)c2)cc1` [C.3] had a melting point of 181 to 183 °C. The “total VEGFR-2 (%) expression” value on VEGFR-2 (20 μM) is 38 ± 7%. The “total VEGFR-2 (%) expression” value on VEGFR-2 (100 μM) was determined as 40 ± 7%. In data set [1], the negative-log IC50 (pIC50) is less than 4.00. Further, the “Minimum Active Conc. inhibiting microtube formation” value with HMEC-1 endothelial cells was determined as 50 µM. Besides, the “% CD80 expression in membrane of THP-1” value in the data set with CD80 was determined as 93 ± 2%.
